Experimental data: patent US20090232761A1, “Use of a Composition Comprising Pentane-1, 5-Diol as Deodorant” (priority 2005, published 2009)

Test: Napkin sprayed with pentane-1,5-diol solution, dried, used to remove urine; smell assessed
Parameters: species or system human being
Conditions: active solutions containing 10% (v/v) and 30% (v/v) sprayed onto disposable napkin, dried at room temperature; control water alone
Source text: Active solutions containing 10% (v/v) and 30% (v/v) pentane-1,5-diol were sprayed onto a disposable napkin until the complete area of the napkin was moistened. The napkin was left at room temperature until the napkin was dry. The napkin was then used to remove urine from a human being. […] As a control was water used alone. The same amount of water and the active solution were used.

For `OCCCCCO` [pentane-1,5-diol], the “smell of urine from the napkin” value was “no smell of urine”.
